Reference: patent publication US9562272B2, “Screening method for therapeutic agent for chondropathy and modified chondrocyte for treatment of chondropathy” (KYOTO UNIVERSITY, priority 2011, dated 2017)

Molecular target: T1, SIK3 (Homo sapiens, UniProt Q9Y2K2)
T1 construct: expressed in transfected cells; host or cells: HEK293
Test: GAL4-Luc/TORC2 dual-luciferase reporter screening system for SIK3 activity in HEK293 cells
Assay type: cell-based
Conditions: HEK293 cells transfected with pM-TORC2 and pTarget-SIK3; test substance added 24 h later, treated for 6 hours; DMSO control
Protocol: Into HEK293 cells, a reporter vector GAL4-Luc (firefly luciferase: pTAL-5XGAL4 (150 ng)), an endogenous reporter vector (Renilla luciferase: pRL-Int (−) (30 ng)), a vector with or without the expression of TORC (pM-TORC2 or pM only (50 ng)) and a vector with or without the expression of SIK3 (pTarget-SIK3 or pTarget only (50 ng)) were introduced using Lipofectamine 2000. Twenty-four hours later, a test substance was added and the cells were further treated for 6 hours. The measurement of the reporter activity was performed using Dual-Luciferase assay kit made by Promega. As the test substance, staurosporine (STS) or a SIK2 inhibitor (Compound C) was used. As a control, DMSO alone was added.
In FIG. 7, the vertical axis represents the activity of TORC2, which is the activity of pM-TORC2 that was calculated by dividing the firefly luciferase activity by the Renilla luciferase activity and is expressed as a multiple of the activity of pM. The white bars and the black bars represent the activities of TORC2 with the absence and presence of SIK3, respectively. […] As is apparent from FIG. 7, the inhibiting activity of staurosporine (STS) on SIK3 was detected.

T1 sequence (Q9Y2K2 whole entry): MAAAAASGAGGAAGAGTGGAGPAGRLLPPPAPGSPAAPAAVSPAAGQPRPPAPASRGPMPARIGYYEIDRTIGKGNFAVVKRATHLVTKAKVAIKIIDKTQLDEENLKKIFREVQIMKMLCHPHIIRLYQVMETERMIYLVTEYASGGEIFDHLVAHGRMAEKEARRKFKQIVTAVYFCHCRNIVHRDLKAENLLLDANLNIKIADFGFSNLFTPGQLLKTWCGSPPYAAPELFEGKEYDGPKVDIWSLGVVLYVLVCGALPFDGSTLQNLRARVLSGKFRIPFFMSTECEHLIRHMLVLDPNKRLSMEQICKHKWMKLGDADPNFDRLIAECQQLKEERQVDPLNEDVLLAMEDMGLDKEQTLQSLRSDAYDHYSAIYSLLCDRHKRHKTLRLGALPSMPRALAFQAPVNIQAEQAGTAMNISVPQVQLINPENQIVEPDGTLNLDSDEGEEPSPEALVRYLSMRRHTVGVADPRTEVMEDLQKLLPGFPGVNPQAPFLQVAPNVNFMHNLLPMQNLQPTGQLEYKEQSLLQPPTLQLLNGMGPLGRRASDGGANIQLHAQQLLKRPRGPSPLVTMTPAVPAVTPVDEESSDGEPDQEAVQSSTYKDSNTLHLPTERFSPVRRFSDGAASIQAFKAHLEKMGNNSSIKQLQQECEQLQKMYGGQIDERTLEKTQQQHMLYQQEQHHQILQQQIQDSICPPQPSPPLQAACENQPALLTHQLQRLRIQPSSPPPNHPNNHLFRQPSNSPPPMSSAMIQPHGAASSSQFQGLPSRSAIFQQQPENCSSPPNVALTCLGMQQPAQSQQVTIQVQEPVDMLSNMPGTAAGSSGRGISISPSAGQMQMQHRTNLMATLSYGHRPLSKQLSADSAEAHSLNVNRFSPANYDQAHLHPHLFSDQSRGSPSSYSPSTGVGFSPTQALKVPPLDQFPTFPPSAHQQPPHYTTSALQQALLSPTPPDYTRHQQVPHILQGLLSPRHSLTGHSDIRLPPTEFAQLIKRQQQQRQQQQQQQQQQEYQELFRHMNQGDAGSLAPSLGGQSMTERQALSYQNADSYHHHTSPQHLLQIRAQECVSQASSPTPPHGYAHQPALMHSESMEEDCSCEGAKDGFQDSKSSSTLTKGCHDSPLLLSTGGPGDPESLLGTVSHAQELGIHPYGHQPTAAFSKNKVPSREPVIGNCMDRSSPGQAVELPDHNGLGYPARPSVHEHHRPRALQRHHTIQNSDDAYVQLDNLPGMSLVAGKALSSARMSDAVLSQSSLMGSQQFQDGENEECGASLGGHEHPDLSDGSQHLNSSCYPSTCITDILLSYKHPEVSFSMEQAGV

SMILES: CN[C@@H]1C[C@H]2O[C@@](C)([C@@H]1OC)n1c3ccccc3c3c4c(c5c6ccccc6n2c5c31)C(=O)NC4 [staurosporine]
- inhibiting activity on SIK3 (activity of TORC2 with absence vs presence of SIK3): detected
